Source: PubChem BioAssay (NCI)
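Each compound was tested at five concentrations against cells in 96-well plates for 48 hours. TGI: total growth inhibition.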

Assays:
Test in all cases: NCI anticancer screen, dose series, 48 h
UACC-62 melanoma = tested on: UACC-62 melanoma
UO-31 renal = tested on: UO-31 renal
SF-268 CNS = tested on: SF-268 CNS
CCRF-CEM leukemia = tested on: CCRF-CEM leukemia
KM12 colon = tested on: KM12 colon
SK-MEL-2 melanoma = tested on: SK-MEL-2 melanoma
OVCAR-5 ovarian = tested on: OVCAR-5 ovarian
NCI-H23 lung = tested on: NCI-H23 lung
SNB-75 CNS = tested on: SNB-75 CNS
HCT-116 colon = tested on: HCT-116 colon
NCI-H226 lung = tested on: NCI-H226 lung
M19-MEL melanoma = tested on: M19-MEL melanoma
M14 melanoma = tested on: M14 melanoma
IGROV1 ovarian = tested on: IGROV1 ovarian
DMS 273 small cell lung = tested on: DMS 273 small cell lung
OVCAR-4 ovarian = tested on: OVCAR-4 ovarian
NCI-H460 lung = tested on: NCI-H460 lung
HT29 colon = tested on: HT29 colon
A549 NSCLC = tested on: A549 NSCLC
K-562 leukemia = tested on: K-562 leukemia
RXF 393 renal = tested on: RXF 393 renal
DLD-1 colon = tested on: DLD-1 colon
SF-295 CNS = tested on: SF-295 CNS
RPMI-8226 leukemia = tested on: RPMI-8226 leukemia
CAKI-1 renal = tested on: CAKI-1 renal
A498 renal = tested on: A498 renal
HCT-15 colon = tested on: HCT-15 colon
SF-539 CNS = tested on: SF-539 CNS
SR leukemia = tested on: SR leukemia
TK-10 renal = tested on: TK-10 renal
UACC-257 melanoma = tested on: UACC-257 melanoma
OVCAR-8 ovarian = tested on: OVCAR-8 ovarian
LOX IMVI melanoma = tested on: LOX IMVI melanoma
SK-MEL-5 melanoma = tested on: SK-MEL-5 melanoma
MALME-3M melanoma = tested on: MALME-3M melanoma
COLO 205 colon = tested on: COLO 205 colon
HL-60(TB) leukemia = tested on: HL-60(TB) leukemia
786-0 renal = tested on: 786-0 renal
DMS 114 small cell lung = tested on: DMS 114 small cell lung
NCI-H522 lung = tested on: NCI-H522 lung
SN12C renal = tested on: SN12C renal
MOLT-4 leukemia = tested on: MOLT-4 leukemia
U251 CNS = tested on: U251 CNS
LXFL 529 NSCLC = tested on: LXFL 529 NSCLC
SW-620 colon = tested on: SW-620 colon
HOP-92 NSCLC = tested on: HOP-92 NSCLC
HOP-18 NSCLC = tested on: HOP-18 NSCLC
HOP-62 NSCLC = tested on: HOP-62 NSCLC
SK-OV-3 ovarian = tested on: SK-OV-3 ovarian
ACHN renal = tested on: ACHN renal
HCC-2998 colon = tested on: HCC-2998 colon
SNB-19 CNS = tested on: SNB-19 CNS
EKVX NSCLC = tested on: EKVX NSCLC
XF 498 CNS = tested on: XF 498 CNS
SK-MEL-28 melanoma = tested on: SK-MEL-28 melanoma
KM20L2 colon = tested on: KM20L2 colon
SNB-78 CNS = tested on: SNB-78 CNS

COc1ccc(C2S/C(=C\c3cccc(O)c3)C(=O)N2NC(=O)Cc2ccccc2)cc1 (stereo not drawn) was tested, and the TGI (UACC-62 melanoma) was > 100 µM, the TGI (UO-31 renal) was > 100 µM and the TGI (SF-268 CNS) was > 100 µM. For the same compound, the TGI (CCRF-CEM leukemia) was > 100 µM, the TGI (KM12 colon) was > 100 µM and the TGI (SK-MEL-2 melanoma) was > 100 µM. The TGI (OVCAR-5 ovarian) was > 100 µM, the TGI (NCI-H23 lung) was > 100 µM and the TGI (SNB-75 CNS) was > 100 µM. For the same compound, the TGI (HCT-116 colon) was > 100 µM, the TGI (NCI-H226 lung) was > 100 µM and the TGI (M19-MEL melanoma) was > 100 µM. For the same compound, the TGI (M14 melanoma) was > 100 µM, the TGI (IGROV1 ovarian) was > 100 µM and the TGI (DMS 273 small cell lung) was > 100 µM. The TGI (OVCAR-4 ovarian) was > 100 µM, the TGI (NCI-H460 lung) was > 100 µM and the TGI (HT29 colon) was > 100 µM. The TGI (A549 NSCLC) was > 100 µM, the TGI (K-562 leukemia) was > 100 µM and the TGI (RXF 393 renal) was > 100 µM. The TGI (DLD-1 colon) was > 100 µM, the TGI (SF-295 CNS) was > 100 µM and the TGI (RPMI-8226 leukemia) was > 100 µM. For the same compound, the TGI (CAKI-1 renal) was > 100 µM, the TGI (A498 renal) was > 100 µM and the TGI (HCT-15 colon) was > 100 µM. The TGI (SF-539 CNS) was > 100 µM, the TGI (SR leukemia) was > 100 µM and the TGI (TK-10 renal) was > 100 µM. For the same compound, the TGI (UACC-257 melanoma) was > 100 µM, the TGI (OVCAR-8 ovarian) was > 100 µM and the TGI (LOX IMVI melanoma) was > 100 µM. For the same compound, the TGI (SK-MEL-5 melanoma) was > 100 µM, the TGI (MALME-3M melanoma) was > 100 µM and the TGI (COLO 205 colon) was > 100 µM. For the same compound, the TGI (HL-60(TB) leukemia) was > 100 µM, the TGI (786-0 renal) was > 100 µM and the TGI (DMS 114 small cell lung) was > 100 µM. For the same compound, the TGI (NCI-H522 lung) was > 100 µM, the TGI (SN12C renal) was > 100 µM and the TGI (MOLT-4 leukemia) was > 100 µM. The TGI (U251 CNS) was > 100 µM, the TGI (LXFL 529 NSCLC) was > 100 µM and the TGI (SW-620 colon) was > 100 µM. The TGI (HOP-92 NSCLC) was > 100 µM, the TGI (HOP-18 NSCLC) was > 100 µM and the TGI (HOP-62 NSCLC) was > 100 µM. The TGI (SK-OV-3 ovarian) was > 100 µM and the TGI (ACHN renal) was > 100 µM.
With O=C(/N=C/c1c(O)c2ccccc2oc1=O)NC1CCCCC1 the TGI (UACC-62 melanoma) was > 100 µM, the TGI (UO-31 renal) was > 100 µM and the TGI (SF-268 CNS) was > 100 µM. For the same compound, the TGI (HCC-2998 colon) was > 100 µM, the TGI (SK-MEL-2 melanoma) was > 100 µM and the TGI (OVCAR-5 ovarian) was > 100 µM. For the same compound, the TGI (NCI-H23 lung) was > 100 µM, the TGI (HCT-116 colon) was > 100 µM and the TGI (NCI-H226 lung) was > 100 µM. For the same compound, the TGI (M19-MEL melanoma) was > 100 µM, the TGI (M14 melanoma) was > 100 µM and the TGI (SNB-19 CNS) was > 100 µM. For the same compound, the TGI (IGROV1 ovarian) was > 100 µM, the TGI (DMS 273 small cell lung) was > 100 µM and the TGI (OVCAR-4 ovarian) was > 100 µM. For the same compound, the TGI (NCI-H460 lung) was > 100 µM, the TGI (HT29 colon) was > 100 µM and the TGI (A549 NSCLC) was > 100 µM. The TGI (RXF 393 renal) was > 100 µM, the TGI (RPMI-8226 leukemia) was > 100 µM and the TGI (HCT-15 colon) was > 100 µM. The TGI (SF-539 CNS) was > 100 µM, the TGI (EKVX NSCLC) was > 100 µM and the TGI (SR leukemia) was > 100 µM. For the same compound, the TGI (XF 498 CNS) was 93 µM, the TGI (TK-10 renal) was > 100 µM and the TGI (UACC-257 melanoma) was > 100 µM. For the same compound, the TGI (OVCAR-8 ovarian) was > 100 µM, the TGI (LOX IMVI melanoma) was > 100 µM and the TGI (SK-MEL-28 melanoma) was > 100 µM. For the same compound, the TGI (SK-MEL-5 melanoma) was > 100 µM, the TGI (COLO 205 colon) was > 100 µM and the TGI (HL-60(TB) leukemia) was > 100 µM. For the same compound, the TGI (KM20L2 colon) was > 100 µM, the TGI (DMS 114 small cell lung) was > 100 µM and the TGI (SN12C renal) was > 100 µM. The TGI (MOLT-4 leukemia) was > 100 µM, the TGI (LXFL 529 NSCLC) was > 100 µM and the TGI (SW-620 colon) was > 100 µM. The TGI (SNB-78 CNS) was > 100 µM, the TGI (HOP-92 NSCLC) was > 100 µM and the TGI (HOP-62 NSCLC) was > 100 µM. For the same compound, the TGI (ACHN renal) was > 100 µM.
